Experimental data: the CheMixHub drug solubility set

Assay: xn = mol fraction of the nth substance listed, in the solute-free solvent

CCCCN1CCCCC1C(=O)Nc1c(C)cccc1C.Cl.O (stereo not given) + CCO + O
solubility (g/100 g solution)
Settings | 293.15 K | 298.15 K | 303.15 K | 308.15 K | 313.15 K | 318.15 K | 323.15 K | 328.15 K | 333.15 K
x2 = 0.1 | 3.04 | 3.34 | 4.11 | 4.86 | 5.9 | 7.35 | 9.3 | 11.2 | 12.9
x2 = 0.2 | 3.1 | 3.37 | 4.04 | 4.84 | 6.41 | 7.92 | 10.1 | 12.9 | 15.1
x2 = 0.3 | 2.9 | 3.27 | 3.99 | 5.42 | 7.36 | 9.56 | 12.4 | 15.8 | 19
x2 = 0.4 | 2.85 | 3.29 | 4.28 | 5.77 | 7.83 | 10.9 | 14.2 | 18.3 | 22.9
x2 = 0.5 | 2.81 | 3.22 | 4.31 | 5.96 | 8.48 | 11.3 | 14.9 | 19.4 | 23.9
x2 = 0.6 | 3.15 | 3.43 | 4.62 | 6.22 | 8.61 | 11.5 | 15.1 | 19.4 | 23.7
x2 = 0.7 | 3.44 | 3.95 | 5.29 | 7.07 | 9.34 | 12.3 | 16.1 | 20.6 | 25
x2 = 0.8 | 3.84 | 4.16 | 5.55 | 7.29 | 9.54 | 12.4 | 15.9 | 20.2 | 24.7
x2 = 0.9 | 3.83 | 4.34 | 5.57 | 7.26 | 9.51 | 12.2 | 15.5 | 19.6 | 24

CCOC(=O)C1=CC2(CC)CCCN3CCc4c(n1c1ccccc41)C32 (stereo not given) + CCO + O
solubility (g/100 g solution)
Settings | 283.15 K | 288.15 K | 293.15 K | 298.15 K | 303.15 K | 308.15 K | 313.15 K | 318.15 K | 323.15 K
x2 = 0.2 | 0.00578 | 0.00816 | 0.0113 | 0.0153 | 0.0208 | 0.028 | 0.0375 | 0.0513 | 0.0683
x2 = 0.3 | 0.0454 | 0.0591 | 0.0768 | 0.0954 | 0.12 | 0.153 | 0.185 | 0.238 | 0.304
x2 = 0.4 | 0.106 | 0.138 | 0.178 | 0.211 | 0.277 | 0.346 | 0.421 | 0.524 | 0.668
x2 = 0.5 | 0.184 | 0.235 | 0.301 | 0.37 | 0.468 | 0.586 | 0.726 | 0.921 | 1.12
x2 = 0.6 | 0.257 | 0.331 | 0.43 | 0.52 | 0.639 | 0.824 | 0.996 | 1.25 | 1.54
x2 = 0.7 | 0.335 | 0.418 | 0.546 | 0.661 | 0.831 | 1.04 | 1.3 | 1.61 | 1.97
x2 = 0.8 | 0.372 | 0.479 | 0.612 | 0.757 | 0.941 | 1.21 | 1.47 | 1.87 | 2.26
x2 = 0.9 | 0.363 | 0.466 | 0.609 | 0.766 | 0.951 | 1.23 | 1.5 | 1.94 | 2.39

CN1CCN(C(=O)OC2c3nccnc3C(=O)N2c2ccc(Cl)cn2)CC1 (stereo not given) + CCO + O
solubility (g/100 g solution)
Settings | x2 = 0.3 | x2 = 0.4 | x2 = 0.5 | x2 = 0.6 | x2 = 0.7 | x2 = 0.8 | x2 = 0.9
288.15 K | 0.129 | 0.242 | 0.377 | 0.527 | 0.59 | 0.511 | 0.375
298.15 K | 0.208 | 0.397 | 0.63 | 0.85 | 0.998 | 0.9 | 0.647
308.15 K | 0.296 | 0.666 | 1.02 | 1.32 | 1.43 | 1.3 | 0.911
318.15 K | 0.474 | 0.988 | 1.51 | 2.03 | 2.31 | 2.12 | 1.53
328.15 K | 0.818 | 1.65 | 2.51 | 3.27 | 3.65 | 3.31 | 2.53

O=[N+]([O-])c1cc[nH]n1 + CCO + O
solubility (g/100 g solution)
Settings | 283.15 K | 288.15 K | 293.15 K | 298.15 K | 303.15 K | 308.15 K | 313.15 K | 318.15 K | 323.15 K
x2 = 0.04165 | 0.265 | 0.347 | 0.44 | 0.528 | 0.709 | 0.854 | 1.16 | 1.49 | 1.89
x2 = 0.08908 | 0.319 | 0.385 | 0.478 | 0.581 | 0.718 | 0.87 | 1.15 | 1.44 | 1.83
x2 = 0.1436 | 0.409 | 0.521 | 0.689 | 0.942 | 1.16 | 1.49 | 1.89 | 2.41 | 3.08
x2 = 0.2068 | 0.482 | 0.6 | 0.75 | 0.956 | 1.18 | 1.48 | 1.87 | 2.34 | 2.97
x2 = 0.2812 | 0.53 | 0.639 | 0.777 | 0.962 | 1.16 | 1.46 | 1.8 | 2.24 | 2.82
x2 = 0.3698 | 1 | 1.2 | 1.45 | 1.71 | 2.08 | 2.5 | 3.05 | 3.86 | 4.83
x2 = 0.4772 | 1.69 | 1.98 | 2.32 | 2.72 | 3.26 | 3.87 | 4.68 | 5.83 | 7.1
x2 = 0.6101 | 2.68 | 3.06 | 3.52 | 4.09 | 4.83 | 5.64 | 6.66 | 8.11 | 9.68
x2 = 0.7788 | 3.98 | 4.51 | 5.09 | 5.8 | 6.58 | 7.79 | 9.11 | 10.7 | 12.4

Cc1nc(CCl)nc2ccccc12 + CCOC(C)=O + C1CCCCC1
solubility (g/100 g solution)
Settings | x2 = 0.163 | x2 = 0.321 | x2 = 0.475 | x2 = 0.624 | x2 = 0.768 | x2 = 0.909
281.15 K | 0.0748 | 0.106 | 0.134 | 0.162 | 0.187 | 0.212
286.15 K | 0.102 | 0.139 | 0.176 | 0.21 | 0.244 | 0.276
291.15 K | 0.134 | 0.18 | 0.225 | 0.27 | 0.312 | 0.352
296.15 K | 0.172 | 0.229 | 0.285 | 0.339 | 0.392 | 0.439
301.15 K | 0.22 | 0.29 | 0.357 | 0.42 | 0.481 | 0.539
306.15 K | 0.276 | 0.357 | 0.437 | 0.511 | 0.582 | 0.65
311.15 K | 0.342 | 0.435 | 0.526 | 0.61 | 0.692 | 0.772
316.15 K | 0.418 | 0.523 | 0.623 | 0.718 | 0.81 | 0.898
321.15 K | 0.504 | 0.619 | 0.727 | 0.833 | 0.934 | 1.03
326.15 K | 0.599 | 0.721 | 0.84 | 0.951 | 1.06 | 1.16
331.15 K | 0.704 | 0.833 | 0.955 | 1.07 | 1.19 | 1.3
